For assay [1], the system named is Receptor-type tyrosine-protein kinase FLT3 (Homo sapiens), P36888 [N841I]. Kind of assay: Inhibition of FLT3 N841I mutant (unknown origin) assessed as residual activity at 100 nM by KINOMEscan analysis relative to control.
Assay [2] has as its target Tyrosine-protein kinase ABL2 (Homo sapiens) (UniProt P42684). Kind of assay: Inhibition of ABL2 (unknown origin) assessed as residual activity at 100 nM by KINOMEscan analysis relative to control.
Assay [3] has as its target Serine/threonine-protein kinase VRK2 (Homo sapiens) (UniProt Q86Y07). Kind of assay: Inhibition of VRK2 (unknown origin) assessed as residual activity at 100 nM by KINOMEscan analysis relative to control.
The test system of assay [4] is Phosphatidylinositol 4,5-bisphosphate 3-kinase catalytic subunit alpha isoform (Homo sapiens), P42336 [I800L]. Kind of assay: Inhibition of PIK3CA I800L mutant (unknown origin) assessed as residual activity at 100 nM by KINOMEscan analysis relative to control.
Assay [5] concerns the target T1, Protein kinase C iota type (Homo sapiens) (UniProt P41743).
T1 sequence (whole entry): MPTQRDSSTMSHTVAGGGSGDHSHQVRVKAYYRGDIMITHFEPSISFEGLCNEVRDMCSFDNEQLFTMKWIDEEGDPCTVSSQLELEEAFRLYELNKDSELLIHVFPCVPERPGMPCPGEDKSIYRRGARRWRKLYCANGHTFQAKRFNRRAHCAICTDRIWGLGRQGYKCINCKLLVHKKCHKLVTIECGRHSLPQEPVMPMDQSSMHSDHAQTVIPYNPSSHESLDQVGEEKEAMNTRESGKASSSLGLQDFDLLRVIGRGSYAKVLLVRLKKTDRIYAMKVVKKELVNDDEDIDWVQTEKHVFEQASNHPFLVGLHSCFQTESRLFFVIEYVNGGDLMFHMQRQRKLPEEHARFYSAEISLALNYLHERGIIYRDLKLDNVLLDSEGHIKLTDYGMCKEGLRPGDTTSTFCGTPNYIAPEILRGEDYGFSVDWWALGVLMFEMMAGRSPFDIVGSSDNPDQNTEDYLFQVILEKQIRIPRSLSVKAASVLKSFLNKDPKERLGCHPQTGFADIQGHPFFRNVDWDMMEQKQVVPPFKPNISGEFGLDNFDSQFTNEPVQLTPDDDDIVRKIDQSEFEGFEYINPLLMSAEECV
Kind of assay: Inhibition of PRKCI (unknown origin) assessed as residual activity at 100 nM by KINOMEscan analysis relative to control.

In assay [6] the target is Casein kinase I isoform delta (Homo sapiens) (UniProt P48730). Kind of assay: Inhibition of CSNK1D (unknown origin) assessed as residual activity at 100 nM by KINOMEscan analysis relative to control.
For assay [7], the target named is T2, Ankyrin repeat and protein kinase domain-containing protein 1 (Homo sapiens) (UniProt Q8NFD2).
T2 sequence (whole entry): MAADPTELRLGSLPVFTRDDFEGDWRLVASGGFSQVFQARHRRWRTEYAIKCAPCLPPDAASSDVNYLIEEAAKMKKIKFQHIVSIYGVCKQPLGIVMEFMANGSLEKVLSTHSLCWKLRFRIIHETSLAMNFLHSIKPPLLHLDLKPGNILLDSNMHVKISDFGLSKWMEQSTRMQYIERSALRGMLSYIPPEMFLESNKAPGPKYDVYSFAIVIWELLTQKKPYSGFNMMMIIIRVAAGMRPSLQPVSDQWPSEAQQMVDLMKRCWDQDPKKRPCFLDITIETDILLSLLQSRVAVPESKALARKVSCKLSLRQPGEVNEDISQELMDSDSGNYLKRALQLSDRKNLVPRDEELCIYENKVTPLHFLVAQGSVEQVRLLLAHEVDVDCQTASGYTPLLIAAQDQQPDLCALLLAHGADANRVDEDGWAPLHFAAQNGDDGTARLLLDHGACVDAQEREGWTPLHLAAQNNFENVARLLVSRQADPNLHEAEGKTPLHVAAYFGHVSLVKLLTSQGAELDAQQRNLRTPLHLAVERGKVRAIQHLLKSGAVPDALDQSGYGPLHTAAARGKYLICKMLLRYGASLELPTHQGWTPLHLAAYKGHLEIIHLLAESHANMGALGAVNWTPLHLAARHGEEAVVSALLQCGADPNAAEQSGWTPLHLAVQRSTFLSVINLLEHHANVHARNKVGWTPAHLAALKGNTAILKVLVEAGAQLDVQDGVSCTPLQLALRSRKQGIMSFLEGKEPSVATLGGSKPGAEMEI
Kind of assay: Inhibition of ANKK1 (unknown origin) assessed as residual activity at 100 nM by KINOMEscan analysis relative to control.

Assay [8] concerns the target Cyclin-dependent kinase 2 homolog (Plasmodium falciparum (isolate K1 / Thailand)) (UniProt Q07785). Kind of assay: Inhibition of Plasmodium falciparum PK5 assessed as residual activity at 100 nM by KINOMEscan analysis relative to control.
Assay [9] deals with Receptor-type tyrosine-protein kinase FLT3 (Homo sapiens), P36888 [UNDEFINED MUTATION]. Kind of assay: Inhibition of FLT3 ITD mutant (unknown origin) assessed as residual activity at 100 nM by KINOMEscan analysis relative to control.
In assay [10] the target is Mitogen-activated protein kinase 11 (Homo sapiens) (UniProt Q15759). Kind of assay: Inhibition of p38-beta (unknown origin) assessed as residual activity at 100 nM by KINOMEscan analysis relative to control.
The target in assay [11] is Mitogen-activated protein kinase kinase kinase kinase 5 (Homo sapiens) (UniProt Q9Y4K4). Kind of assay: Inhibition of MAP4K5 (unknown origin) assessed as residual activity at 100 nM by KINOMEscan analysis relative to control.
Assay [12] has as its target ALK tyrosine kinase receptor (Homo sapiens) (UniProt Q9UM73). Kind of assay: Inhibition of ALK (unknown origin) assessed as residual activity at 100 nM by KINOMEscan analysis relative to control.

Each structure is given as a SMILES string.

Serine/threonine-protein kinase VRK2 (Homo sapiens), sequence (Q86Y07 whole entry, canonical isoform): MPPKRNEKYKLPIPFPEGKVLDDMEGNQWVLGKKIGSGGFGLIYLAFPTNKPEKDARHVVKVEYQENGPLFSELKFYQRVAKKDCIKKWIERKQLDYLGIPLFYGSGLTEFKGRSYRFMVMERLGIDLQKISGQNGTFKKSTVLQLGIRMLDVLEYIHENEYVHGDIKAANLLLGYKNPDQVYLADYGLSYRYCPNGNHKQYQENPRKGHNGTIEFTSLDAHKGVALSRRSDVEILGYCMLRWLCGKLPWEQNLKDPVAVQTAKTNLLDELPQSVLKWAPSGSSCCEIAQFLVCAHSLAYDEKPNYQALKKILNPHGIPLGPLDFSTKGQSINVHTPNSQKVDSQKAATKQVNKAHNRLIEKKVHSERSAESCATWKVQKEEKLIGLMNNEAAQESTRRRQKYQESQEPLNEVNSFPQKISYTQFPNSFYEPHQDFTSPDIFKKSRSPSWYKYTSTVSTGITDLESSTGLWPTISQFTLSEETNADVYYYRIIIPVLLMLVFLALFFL
Casein kinase I isoform delta (Homo sapiens), sequence (P48730 whole entry, looked up, the tested form may be a part, canonical isoform): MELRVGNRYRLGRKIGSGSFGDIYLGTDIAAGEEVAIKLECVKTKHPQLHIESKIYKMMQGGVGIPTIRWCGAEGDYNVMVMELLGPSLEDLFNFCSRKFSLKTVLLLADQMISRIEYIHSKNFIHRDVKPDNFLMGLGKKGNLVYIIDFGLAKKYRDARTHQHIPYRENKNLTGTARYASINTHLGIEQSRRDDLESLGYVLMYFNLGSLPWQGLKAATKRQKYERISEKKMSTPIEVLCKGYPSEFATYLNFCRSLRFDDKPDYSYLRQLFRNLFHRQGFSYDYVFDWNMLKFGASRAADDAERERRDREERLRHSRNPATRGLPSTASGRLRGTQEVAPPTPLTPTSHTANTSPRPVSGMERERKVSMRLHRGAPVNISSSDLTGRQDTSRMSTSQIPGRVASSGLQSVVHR
Mitogen-activated protein kinase kinase kinase kinase 5 (Homo sapiens), sequence (Q9Y4K4 whole entry, looked up): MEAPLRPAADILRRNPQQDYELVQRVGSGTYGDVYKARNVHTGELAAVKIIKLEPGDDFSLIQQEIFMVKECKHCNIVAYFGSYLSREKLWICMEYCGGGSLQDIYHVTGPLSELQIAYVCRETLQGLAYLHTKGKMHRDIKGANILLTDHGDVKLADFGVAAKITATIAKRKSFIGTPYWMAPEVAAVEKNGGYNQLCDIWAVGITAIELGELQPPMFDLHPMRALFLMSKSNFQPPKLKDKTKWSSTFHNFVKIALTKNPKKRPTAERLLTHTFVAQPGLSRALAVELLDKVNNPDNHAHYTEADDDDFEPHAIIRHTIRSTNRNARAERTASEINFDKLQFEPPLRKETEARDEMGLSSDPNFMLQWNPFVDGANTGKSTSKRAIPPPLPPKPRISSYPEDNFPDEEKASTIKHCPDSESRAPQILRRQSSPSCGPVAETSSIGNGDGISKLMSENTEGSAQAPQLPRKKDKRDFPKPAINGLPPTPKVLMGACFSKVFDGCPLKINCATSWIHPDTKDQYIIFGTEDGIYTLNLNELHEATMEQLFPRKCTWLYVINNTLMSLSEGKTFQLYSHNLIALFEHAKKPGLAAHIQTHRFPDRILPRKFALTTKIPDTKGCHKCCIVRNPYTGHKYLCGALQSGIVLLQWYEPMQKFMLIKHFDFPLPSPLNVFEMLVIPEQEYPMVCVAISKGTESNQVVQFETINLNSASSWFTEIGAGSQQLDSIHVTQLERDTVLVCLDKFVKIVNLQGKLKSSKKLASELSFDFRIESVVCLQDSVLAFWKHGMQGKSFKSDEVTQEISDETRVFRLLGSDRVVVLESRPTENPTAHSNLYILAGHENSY
Tyrosine-protein kinase ABL2 (Homo sapiens), sequence (P42684 whole entry): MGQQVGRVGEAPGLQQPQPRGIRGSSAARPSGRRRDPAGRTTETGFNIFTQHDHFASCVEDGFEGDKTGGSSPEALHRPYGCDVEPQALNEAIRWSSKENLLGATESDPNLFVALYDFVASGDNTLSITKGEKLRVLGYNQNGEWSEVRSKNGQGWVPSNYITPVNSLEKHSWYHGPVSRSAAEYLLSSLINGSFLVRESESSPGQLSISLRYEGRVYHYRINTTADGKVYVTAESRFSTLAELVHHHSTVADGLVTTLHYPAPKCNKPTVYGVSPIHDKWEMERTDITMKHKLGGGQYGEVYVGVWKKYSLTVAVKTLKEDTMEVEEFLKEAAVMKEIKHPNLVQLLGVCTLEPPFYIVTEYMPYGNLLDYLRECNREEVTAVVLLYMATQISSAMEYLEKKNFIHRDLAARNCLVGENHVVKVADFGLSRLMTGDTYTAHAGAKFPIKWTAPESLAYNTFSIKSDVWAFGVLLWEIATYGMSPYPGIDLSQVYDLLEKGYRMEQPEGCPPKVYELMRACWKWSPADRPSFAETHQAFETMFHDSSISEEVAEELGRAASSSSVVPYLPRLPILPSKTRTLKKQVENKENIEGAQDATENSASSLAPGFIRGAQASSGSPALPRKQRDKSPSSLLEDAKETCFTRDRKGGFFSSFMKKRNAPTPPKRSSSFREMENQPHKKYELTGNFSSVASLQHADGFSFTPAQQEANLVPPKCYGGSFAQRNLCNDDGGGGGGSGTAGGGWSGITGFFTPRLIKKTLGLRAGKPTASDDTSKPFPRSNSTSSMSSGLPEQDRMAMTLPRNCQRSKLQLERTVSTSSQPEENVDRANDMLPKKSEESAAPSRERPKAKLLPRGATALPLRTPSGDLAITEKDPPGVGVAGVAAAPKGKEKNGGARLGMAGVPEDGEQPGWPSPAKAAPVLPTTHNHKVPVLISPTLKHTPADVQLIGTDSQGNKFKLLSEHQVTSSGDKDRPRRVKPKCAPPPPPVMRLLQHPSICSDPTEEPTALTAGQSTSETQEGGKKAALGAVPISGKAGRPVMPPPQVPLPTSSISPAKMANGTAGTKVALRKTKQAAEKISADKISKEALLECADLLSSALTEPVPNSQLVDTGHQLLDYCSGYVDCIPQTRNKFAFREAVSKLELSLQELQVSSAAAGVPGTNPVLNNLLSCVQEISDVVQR
Mitogen-activated protein kinase 11 (Homo sapiens), sequence (Q15759 whole entry): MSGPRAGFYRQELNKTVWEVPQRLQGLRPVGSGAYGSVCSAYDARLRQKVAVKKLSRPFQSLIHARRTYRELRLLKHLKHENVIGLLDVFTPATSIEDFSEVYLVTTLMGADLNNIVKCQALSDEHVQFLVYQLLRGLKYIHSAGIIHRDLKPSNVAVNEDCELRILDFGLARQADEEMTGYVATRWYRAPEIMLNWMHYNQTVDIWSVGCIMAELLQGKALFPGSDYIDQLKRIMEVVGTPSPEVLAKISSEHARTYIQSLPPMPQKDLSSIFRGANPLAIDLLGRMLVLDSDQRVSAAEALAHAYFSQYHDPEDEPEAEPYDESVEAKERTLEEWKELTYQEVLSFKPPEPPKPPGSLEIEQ
Cyclin-dependent kinase 2 homolog (Plasmodium falciparum (isolate K1 / Thailand)), sequence (Q07785 whole entry): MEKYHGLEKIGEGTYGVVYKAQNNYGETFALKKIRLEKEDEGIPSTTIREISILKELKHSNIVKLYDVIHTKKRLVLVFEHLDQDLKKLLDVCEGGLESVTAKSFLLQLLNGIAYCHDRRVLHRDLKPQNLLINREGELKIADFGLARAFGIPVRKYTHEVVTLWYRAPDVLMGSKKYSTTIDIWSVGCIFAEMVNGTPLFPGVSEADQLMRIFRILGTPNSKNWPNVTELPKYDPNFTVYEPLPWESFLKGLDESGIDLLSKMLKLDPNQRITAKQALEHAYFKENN
Phosphatidylinositol 4,5-bisphosphate 3-kinase catalytic subunit alpha isoform (Homo sapiens), P42336 [I800L], sequence (P42336 whole entry I800L, canonical isoform): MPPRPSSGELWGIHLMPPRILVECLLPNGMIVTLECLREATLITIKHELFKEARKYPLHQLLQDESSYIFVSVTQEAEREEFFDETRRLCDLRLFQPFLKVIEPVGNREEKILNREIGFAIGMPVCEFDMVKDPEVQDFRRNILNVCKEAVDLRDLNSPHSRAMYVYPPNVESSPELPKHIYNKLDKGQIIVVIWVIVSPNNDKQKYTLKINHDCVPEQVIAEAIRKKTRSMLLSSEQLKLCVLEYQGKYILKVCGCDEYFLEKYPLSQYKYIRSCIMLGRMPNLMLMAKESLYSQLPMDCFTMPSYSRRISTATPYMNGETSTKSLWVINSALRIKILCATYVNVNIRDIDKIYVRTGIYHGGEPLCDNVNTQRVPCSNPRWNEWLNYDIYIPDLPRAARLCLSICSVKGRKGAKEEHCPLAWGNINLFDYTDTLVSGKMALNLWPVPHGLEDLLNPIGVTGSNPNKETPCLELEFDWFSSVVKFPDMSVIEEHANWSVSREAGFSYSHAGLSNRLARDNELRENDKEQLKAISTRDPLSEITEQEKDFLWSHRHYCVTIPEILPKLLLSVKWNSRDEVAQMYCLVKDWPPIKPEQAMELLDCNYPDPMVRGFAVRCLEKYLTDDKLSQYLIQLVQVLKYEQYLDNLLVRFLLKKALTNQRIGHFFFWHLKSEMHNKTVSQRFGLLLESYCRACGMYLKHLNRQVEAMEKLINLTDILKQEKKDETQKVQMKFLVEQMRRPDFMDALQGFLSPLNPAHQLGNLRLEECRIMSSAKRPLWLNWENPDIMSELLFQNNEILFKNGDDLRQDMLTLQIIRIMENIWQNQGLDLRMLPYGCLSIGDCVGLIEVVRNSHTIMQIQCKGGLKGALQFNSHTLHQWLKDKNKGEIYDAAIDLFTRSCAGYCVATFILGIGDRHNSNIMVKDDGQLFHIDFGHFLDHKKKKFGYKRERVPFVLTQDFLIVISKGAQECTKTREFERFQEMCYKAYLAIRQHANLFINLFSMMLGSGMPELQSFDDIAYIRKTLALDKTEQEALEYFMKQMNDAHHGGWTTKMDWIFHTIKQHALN

For `COc1cc2ncnc(N[C@H](C)c3cccc4ccccc34)c2cc1OC`, the Activity worked out at 100% in assay [1]; 81% in assay [2]; 72% in assay [3]; 98% in assay [4]; 84% in assay [5]; 97% in assay [6]. The Activity in [7] came to 97%; in assay [8] it was 100%; in assay [9] it was 100%; in assay [10], 81%; in assay [11] it was 87%; in assay [12], 87%.

The values above are taken from ChEMBL document CHEMBL5678818, “Discovery of potent SOS1 inhibitors that block RAS activation via disruption of the RAS-SOS1 interaction” (Proc Natl Acad Sci U S A, 2019).
